Results reported in article PMC6471528, “Biological Evaluation and Molecular Docking Studies of Dimethylpyridine Derivatives” (Molecules, 2019).

How the values were obtained:
[1] = tested on: A549 (pulmonary basal cell alveolar adenocarcinoma); experiment: Sulforhodamine B cytotoxicity assay, A549; type: cell-based; details: Homo sapiens, SRB assay, 48 h, mean (SD), n = 3
Source text: (§1) The sulforhodamine B assay was used to estimate the cytotoxic properties of the compounds. The cytotoxic activity of dimethylpyridine derivatives was studied against human cancer cell lines: A549 (pulmonary basal cell alveolar adenocarcinoma) and LoVo (colon adenocarcinoma). Additionally, the effect of compounds on NHDF (normal human dermal fibroblasts) and normal cell line V79 (fibroblast from Chinese hamster lung) was examined.
(§2) Normal human dermal fibroblasts (NHDF) from adult donors were purchased from Lonza (Verviers, Belgium). Normal cell line V79 (fibroblast from Chinese hamster lung) and human cancer cell lines, A549 (pulmonary basal cell alveolar adenocarcinoma) and LoVo (colon adenocarcinoma) were obtained from the European Collection of Authenticated Cell Cultures (ECACC).
(§3) Cells were grown in the culture media recommended by the cell line supplier. Before the test, adherent cells were detached with the trypsin EDTA solution, and FBS-containing medium was used to neutralize the effects of the trypsin/EDTA solution. After that, cells were spun down, counted, stained with a 0.4% solution of trypan blue and inspected under a microscope for cell viability. Then, cells were placed on 96-well plastic culture plates (2 × 10^3 cells/well) and incubated at 37 °C in a CO2-incubator for 24 h. Afterwards, all the tested compounds were added at appropriate final concentrations (100 µM, 50 µM, 20 µM, 10 µM, 5 µM), and the cultures were incubated for 48 h in CO2-incubator at 37 °C. Finally, cells were harvested and intended for the cell proliferation test.
(§4) Cell density/cell proliferation was estimated with the sulforhodamine B (SRB)-colorimetric assay. Briefly, cell cultures were fixed with cold TCA (final concentration 10% (w/v) in cultures of adherent cells for 1 h at 4 °C, then washed four times with tap water and air-dried at room temperature (20–25 °C). A mildly-acidic SRB solution (0.4% dye solution in 1% acetic acid) was added to each well for 30 min at 25 °C. Then, the unbound stain was removed by rinsing with an aqueous solution of 1% (v/v) acetic acid. Culture plates were then allowed to dry at room temperature. The protein-bound dye was dissolved in 10 mM Tris base solution (pH 10.5) for 10 min on a gyratory shaker. Absorbance of the SRB solution was estimated at 540 nm in a Victor 2 microplate reader (Perkin-Elmer, Waltham, MA, USA).

[2] = tested on: V79 (fibroblast from Chinese hamster lung); experiment: Sulforhodamine B cytotoxicity assay, V79; type: cell-based; details: Cricetulus griseus, SRB assay, 48 h, mean (SD), n = 3
Source text: as §1, §2, §3, §4

[3] = tested on: NHDF (normal human dermal fibroblasts); experiment: Sulforhodamine B cytotoxicity assay, NHDF; type: cell-based; details: SRB assay, 48 h, mean (SD), n = 3
Source text: as §1, §2, §3, §4

[4] = tested on: LoVo (colon adenocarcinoma); experiment: Sulforhodamine B cytotoxicity assay, LoVo; type: cell-based; details: Homo sapiens, SRB assay, 48 h, mean (SD), n = 3
Source text: as §1, §2, §3, §4

COX-2 = molecular target: T1, COX-2 (Homo sapiens, UniProt P35354); experiment: COX colorimetric inhibitor screening assay (TMPD oxidation), COX-2; type: biochemical; details: for Ratio: COX-2/COX-1: ratio of IC50 values COX-2/COX-1; for IC50: read-out: IC50 (µM),(SD) COX-2; for inhibitory activity on COX-2 (in words): 2 min of incubation
T1 construct: purchased Cayman Chemical Company
T1 sequence (P35354 18-604): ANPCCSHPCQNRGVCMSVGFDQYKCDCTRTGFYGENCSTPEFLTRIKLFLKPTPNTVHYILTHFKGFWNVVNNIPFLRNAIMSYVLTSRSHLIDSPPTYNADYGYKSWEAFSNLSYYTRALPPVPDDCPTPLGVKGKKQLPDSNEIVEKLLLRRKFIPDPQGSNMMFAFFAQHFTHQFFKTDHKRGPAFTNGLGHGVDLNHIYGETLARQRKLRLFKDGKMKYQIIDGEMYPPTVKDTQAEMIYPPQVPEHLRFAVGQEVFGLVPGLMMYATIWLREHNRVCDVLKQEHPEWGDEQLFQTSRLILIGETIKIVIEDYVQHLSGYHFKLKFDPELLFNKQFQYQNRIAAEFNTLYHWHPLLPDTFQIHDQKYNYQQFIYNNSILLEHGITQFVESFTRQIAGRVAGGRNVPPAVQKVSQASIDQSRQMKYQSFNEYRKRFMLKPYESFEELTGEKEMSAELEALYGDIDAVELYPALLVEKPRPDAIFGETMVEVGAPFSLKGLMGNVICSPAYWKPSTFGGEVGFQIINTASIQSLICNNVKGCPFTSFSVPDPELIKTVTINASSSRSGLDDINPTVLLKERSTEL
Protocol: (§5) The compounds were investigated for their potencies to inhibit COX-1 and COX-2 enzymes by the colorimetric inhibitor screening assay.
(§6) Selectivity of the compounds to COX-1 or to COX-2 was assessed by calculation of the IC50 ratios.
(§7) This method allows one to estimate the peroxidase activity of COX by colorimetric monitoring of the occurrence of the oxidized form of N,N,N′,N′-tetramethyl-p-phenylenediamine (TMPD) at 590 nm. TMPD is a substrate for most enzymes with peroxidase activity, and high throughput microplate assays using TMPD allow the rapid screening of a wide range of therapeutics that inhibit COX activity in vitro.
(§8) The test is based on the oxidation of TMPD during the reduction of PGG2 (prostaglandin G2) to PGH2, which is reflected by a change in colour, measured spectrophotometrically (Victor2 microspectrophotometer, PerkinElmer Waltham, MA, USA). The assay uses Tris-HCl buffer (0.1 M assay buffer, pH 8.0), a solution of heme in dimethylsulfoxide (DMSO), enzymes (COX-1, COX-2), arachidonic acid (100 μM), KOH (0.1 M) and a solution of TMPD. The assay mixture contains: 150 µL of assay buffer, 10 µL of heme and 10 µL of COX-1 or COX-2. In order to determine 100% enzyme activity (each COX sample was assayed in triplicate), 10 µL of the substances used as solvents (methanol, ethanol, DMSO) was added to the wells. Ten microlitres of tested inhibitors at appropriate concentrations were added to the other wells. Twenty microlitres of TMPD were added to all wells. The reaction was initiated by the addition of arachidonic acid.
(§9) The effect of tested inhibitors on COX-1 and COX-2 enzyme activity was measured by assaying the rate of TMPD oxidation within 2 min in a spectrophotometer at 590 nm.
(§10) The activity factor at 2 min of incubation with the tested compounds in comparison to the initial activity of the enzyme was determined.

COX-1 = molecular target: T2, COX-1 (Ovis aries, UniProt P05979); experiment: COX colorimetric inhibitor screening assay (TMPD oxidation), COX-1; type: biochemical; details: for IC50: read-out: IC50 (µM),(SD) COX-1; for inhibitory activity on COX-1 (in words): 2 min of incubation
T2 construct: purchased Cayman Chemical Company
T2 sequence (P05979 25-600): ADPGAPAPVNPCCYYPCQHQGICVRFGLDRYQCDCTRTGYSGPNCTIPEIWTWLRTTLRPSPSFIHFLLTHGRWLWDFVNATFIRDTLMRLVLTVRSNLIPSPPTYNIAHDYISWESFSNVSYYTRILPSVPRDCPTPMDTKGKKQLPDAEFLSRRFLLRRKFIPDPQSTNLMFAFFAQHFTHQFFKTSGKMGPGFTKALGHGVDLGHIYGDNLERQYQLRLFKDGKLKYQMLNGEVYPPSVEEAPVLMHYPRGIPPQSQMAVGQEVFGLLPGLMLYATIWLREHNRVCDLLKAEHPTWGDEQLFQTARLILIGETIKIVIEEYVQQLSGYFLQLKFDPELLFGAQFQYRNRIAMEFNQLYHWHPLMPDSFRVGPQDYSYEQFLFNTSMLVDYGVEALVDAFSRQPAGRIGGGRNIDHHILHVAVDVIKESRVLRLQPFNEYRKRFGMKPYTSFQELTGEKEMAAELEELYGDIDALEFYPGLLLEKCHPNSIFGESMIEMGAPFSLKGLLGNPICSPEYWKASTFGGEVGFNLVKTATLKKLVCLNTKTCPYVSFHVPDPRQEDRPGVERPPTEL
Protocol: as §5, §6, §7, §8, §9, §10

Row | Ratio: COX-2/COX-1 (COX-2) | IC50 (COX-2) | IC50 (COX-1) | inhibitory activity on COX-2 (in words) (COX-2) | inhibitory activity on COX-1 (in words) (COX-1) | SMILES | IC50 [1] | IC50 [2] | IC50 [3] | IC50 [4]
1 | – | – | – | no inhibitory activity | no inhibitory activity | Cc1cc(C)c(C(=O)NCC(=O)N/N=C/c2ccc(C(F)(F)F)cc2)c(S)n1 [PS38] | 504 µM | 172 µM | – | –
2 | – | – | – | no inhibitory activity | no inhibitory activity | Cc1cc(C)c(C(=O)NCC(=O)N/N=C/c2cc([N+](=O)[O-])ccc2Cl)c(S)n1 [PS39] | 120 µM | 147 µM | 391 µM | 103 µM
3 | – | – | – | no inhibitory activity | no inhibitory activity | Cc1cc(C)c(C(=O)NCC(=O)N/N=C/c2ccc(Cl)cc2Cl)c(S)n1 [PS41] | 220 µM | 418 µM | 336 µM | 154 µM
4 | 2.4 | 177 µM | 72.8 µM | – | – | CCOc1ccccc1/C=N/NC(=O)CNC(=O)c1c(C)cc(C)nc1S [PS42] | 140 µM | 162 µM | 132 µM | 133 µM

Second part, the compound before the results:

Row | SMILES | Ratio: COX-2/COX-1 (COX-2) | IC50 (COX-2) | IC50 (COX-1) | inhibitory activity on COX-2 (in words) (COX-2) | inhibitory activity on COX-1 (in words) (COX-1) | IC50 [1] | IC50 [2] | IC50 [3] | IC50 [4]
5 | Cc1cnc(NC(=O)C2=C(O)c3ccccc3S(=O)(=O)N2C)s1 [Meloxicam, reference compound] | – | – | – | – | – | 148 µM | 232 µM | 206 µM | 125 µM
6 | Cc1cc(C)c(C(=O)NCC(=O)N/N=C/c2ccccc2)c(S)n1 [PS18, N′-phenylmethylene derivative] | 2.4 | 139 µM | 57.3 µM | – | – | 154 µM | 275 µM | 171 µM | 135 µM
7 | Cc1ccc(/C=N/NC(=O)CNC(=O)c2c(C)cc(C)nc2S)cc1 [PS33, N′-4-methylphenylmethylene derivative] | 2.8 | 143 µM | 51.8 µM | – | – | 156 µM | 178 µM | 159 µM | 131 µM
8 | Cc1cc(C)c(C(=O)NCC(=O)N/N=C/c2cccc3ccccc23)c(S)n1 [PS34, N′-naphtylmethylene derivative] | – | – | – | no inhibitory activity | no inhibitory activity | – | 421 µM | – | –
9 | Cc1cc(C)c(C(=O)NCC(=O)N/N=C/c2c3ccccc3cc3ccccc23)c(S)n1 [PS35] | – | – | – | no inhibitory activity | no inhibitory activity | – | 196 µM | 202 µM | 212 µM
10 | Cc1cc(C)c(C(=O)NCC(=O)N/N=C/c2ccc([N+](=O)[O-])cc2)c(S)n1 [PS36] | – | 731 µM | – | – | did not show any inhibitory activity | 164 µM | 141 µM | 144 µM | 99.8 µM
11 | CN1C(C(=O)Nc2ccccn2)=C(O)c2ccccc2S1(=O)=O [Piroxicam, reference compound] | – | – | – | – | – | 138 µM | 200 µM | – | 122 µM
